Results: patent EP2394998A1, “3-(5-Amino-6-oxo-1,6-dihydropyridazin-3-yl)-biphenyl derivatives as PDE4 inhibitors” (Almirall, S.A., priority 2010, dated 2011)

Molecular target: recombinant PDE4 enzyme
Assay: PDE4 assay: [3H] cAMP Scintillation Proximity Assay (SPA) of phosphodiesterase activity
Assay type: biochemical
Details: yeast extract of recombinant PDE4 enzyme; 30 nM [3H] cAMP; 1 h at room temperature; pH 7.5
Description: Measurement of Phosphodiesterase Activity was done using a [3H] cAMP Scintillation Proximity Assay (SPA) (GE Healthcare). Compounds to be tested were disolved in dimethylsulfoxide (DMSO) at a stock concentration of 1 mM and serial dilutions were prepared in 50% DMSO to determine IC50s.
The reactions were conducted in 96-well plates (Corning, Ref.3604) at room temperature, in 0.1 mL of reaction buffer containing (final concentrations): 50 mM Tris-HCl, pH 7.5, 8.3 mM MgCl2, 1.7 mM EGTA, 30 nM [3H] cAMP (approximately 150000 dpm/well) with or without the inhibitors. The reaction was initiated by adding yeast extract of recombinant PDE4 enzyme.
Plates were shaken for 1 h at room temperature and the incubation was terminated by adding 50 µL (0.5 mg /well) of SPA ytrium silicate beads (RPNQ 0150; GE Healthcare) in the presence of zinc sulfate. Plates were stored overnight in the dark and read on a TRILUX microtiter plate reader (Perkin Elmer).

Row | IC50 | SMILES
1 | 0.016 nM | CCn1nc(-c2cccc(-c3cccc(C(=O)NC4CCCC4)c3)c2)cc(Nc2cccc3ncccc23)c1=O [Example 27, N-cyclopentyl-3'-[1-ethyl-6-oxo-5-(quinolin-5-ylamino)-1,6-dihydropyridazin-3-yl]biphenyl-3-carboxamide]
2 | 0.041 nM | CCn1nc(-c2cccc(-c3cccc(C(=O)NCC(N)=O)c3)c2)cc(Nc2cccc3ncccc23)c1=O [Example 48, N-(2-Amino-2-oxoethyl)-3'-(1-ethyl-6-oxo-5-(quinolin-5-ylamino)-1,6-dihydropyridazin-3-yl)biphenyl-3-carboxamide]
3 | 0.016 nM | CCn1nc(-c2cccc(-c3cccc(C(N)=O)c3)c2)cc(Nc2cccc3c2ccc[n+]3[O-])c1=O [Example 7, 3'-{1-ethyl-5-[(1-oxidoquinolin-5-yl)amino]-6-oxo-1,6-dihydropyridazin-3-yl}biphenyl-3-carboxamide]
4 | 0.101 nM | CCn1nc(-c2cccc(-c3cccc(CCC(=O)NC4CC4)c3)c2)cc(Nc2cccc3ncccc23)c1=O [Example 38, N-cyclopropyl-3-{3'-[1-ethyl-6-oxo-5-(quinolin-5-ylamino)-1,6-dihydropyridazin-3-yl]biphenyl-3-yl}propanamide]
5 | 0.128 nM | CCn1nc(-c2cccc(-c3ccc(C(=O)NCCN4CCCCC4)cc3)c2)cc(Nc2cncc3ccccc23)c1=O [Example 22, 3'-[1-ethyl-5-(isoquinolin-4-ylamino)-6-oxo-1,6-dihydropyridazin-3-yl]-N-(2-piperidin-1-ylethyl)biphenyl-4-carboxamide]
6 | 0.223 nM | CCn1nc(-c2cccc(-c3cccc(C(=O)NC4CCC4)c3)c2)cc(Nc2cncc3ccccc23)c1=O [Example 19, N-cyclobutyl-3'-[1-ethyl-5-(isoquinolin-4-ylamino)-6-oxo-1,6-dihydropyridazin-3-yl]biphenyl-3-carboxamide]
7 | 0.172 nM | CCn1nc(-c2cccc(-c3cccc(C(=O)NC4CCN(C)CC4)c3)c2)cc(Nc2cncc3ccccc23)c1=O [Example 36, 3'-[1-ethyl-5-(isoquinolin-4-ylamino)-6-oxo-1,6-dihydropyridazin-3-yl]-N-(1-methylpiperidin-4-yl)biphenyl-3-carboxamide]
8 | 0.209 nM | CCn1nc(-c2cccc(-c3cccc(C(=O)NC4CCC4)c3)c2)cc(Nc2cccc3ncccc23)c1=O [Example 25, N-cyclobutyl-3'-[1-ethyl-6-oxo-5-(quinolin-5-ylamino)-1,6-dihydropyridazin-3-yl]biphenyl-3-carboxamide]
9 | 0.045 nM | CCn1nc(-c2cccc(-c3cccc(C(=O)NCCN4CCCCC4)c3)c2)cc(Nc2cccc3ncccc23)c1=O [Example 16, 3'-[1-ethyl-6-oxo-5-(quinolin-5-ylamino)-1,6-dihydropyridazin-3-yl]-N-(2-piperidin-1-ylethyl)biphenyl-3-carboxamide]
10 | 0.445 nM | CCn1nc(-c2cccc(-c3ccc(C(=O)O)cc3)c2)cc(Nc2cncc3ccccc23)c1=O [Example 5, 3'-[1-ethyl-5-(isoquinolin-4-ylamino)-6-oxo-1,6-dihydropyridazin-3-yl]biphenyl-4-carboxylic acid]
11 | 0.019 nM | CCn1nc(-c2cccc(-c3cccc(C(=O)NCCN4CCOCC4)c3)c2)cc(Nc2cccc3ncccc23)c1=O [Example 15, 3'-[1-ethyl-6-oxo-5-(quinolin-5-ylamino)-1,6-dihydropyridazin-3-yl]-N-(2-morpholin-4-ylethyl)biphenyl-3-carboxamide]
12 | 0.043 nM | CCn1nc(-c2cccc(-c3cccc(C(=O)NCCN4CCOCC4)c3)c2)cc(Nc2cncc3ccccc23)c1=O [Example 17, 3'-[1-ethyl-5-(isoquinolin-4-ylamino)-6-oxo-1,6-dihydropyridazin-3-yl]-N-(2-morpholin-4-ylethyl)biphenyl-3-carboxamide]
13 | 0.125 nM | CCn1nc(-c2cccc(-c3cccc(C(=O)NCCN(C)C)c3)c2)cc(Nc2cccc3ncccc23)c1=O [Example 12, N-[2-(dimethylamino)ethyl]-3'-[1-ethyl-6-oxo-5-(quinolin-5-ylamino)-1,6-dihydropyridazin-3-yl]biphenyl-3-carboxamide]
14 | 0.023 nM | CCn1nc(-c2cccc(-c3cc(C(=O)NCCCN4CCC[C@H]4COC)cc(C(=O)NC4CC4)c3)c2)cc(Nc2cccc3ncccc23)c1=O [Example 62, N-cyclopropyl-3'-[1-ethyl-6-oxo-5-(quinolin-5-ylamino)-1,6-dihydropyridazin-3-yl]-N'-{3-[(2S)-2-(methoxymethyl)pyrrolidin-1-yl]propyl}biphenyl-3,5-dicarboxamide]
15 | 0.042 nM | CCn1nc(-c2cccc(-c3cccc(C(=O)NCC(=O)O)c3)c2)cc(Nc2cccc3ncccc23)c1=O [Example 49, N-({3'-[1-ethyl-6-oxo-5-(quinolin-5-ylamino)-1,6-dihydropyridazin-3-yl]biphenyl-3-yl}carbonyl)glycine]
16 | 0.025 nM | CCn1nc(-c2cccc(-c3cccc(C(=O)NCCCCCCCN(C)CCO)c3)c2)cc(Nc2cccc3ncccc23)c1=O [Example 29, 3'-[1-ethyl-6-oxo-5-(quinolin-5-ylamino)-1,6-dihydropyridazin-3-yl]-N-{7-[(2-hydroxyethyl)(methyl)amino]heptyl}biphenyl-3-carboxamide]
17 | 0.09 nM | CCn1nc(-c2cccc(-c3ccc(CC(=O)NCCN4CCCCC4)cc3)c2)cc(Nc2cccc3ncccc23)c1=O [Example 54, 2-{3'-[1-ethyl-6-oxo-5-(quinolin-5-ylamino)-1,6-dihydropyridazin-3-yl]biphenyl-4-yl}-N-(2-piperidin-1-ylethyl)acetamide]
18 | 0.037 nM | CCn1nc(-c2cccc(-c3cc(C(=O)NCCN4CCC[C@H]4COC)cc(C(=O)NC4CC4)c3)c2)cc(Nc2cccc3ncccc23)c1=O [Example 63, N-cyclopropyl-3'-[1-ethyl-6-oxo-5-(quinolin-5-ylamino)-1,6-dihydropyridazin-3-yl]-N'-{2-[(2S)-2-(methoxymethyl)pyrrolidin-1-yl]ethyl}biphenyl-3,5-dicarboxamide]
19 | 0.037 nM | CCn1nc(-c2cccc(-c3cccc(C(=O)NC4CC4)c3)c2)cc(Nc2cccc3ncccc23)c1=O [Example 13, N-cyclopropyl-3'-[1-ethyl-6-oxo-5-(quinolin-5-ylamino)-1,6-dihydropyridazin-3-yl]biphenyl-3-carboxamide]
